According to ChEMBL document CHEMBL1201862, “PubChem BioAssay data set” (2004):
Active and inactive are the calls of the source. For most assays here, no stated cut-off is given here; in the data, actives have a measured EC50 and inactives only a lower limit.

What was measured:
[1] = Luminescence Cell-Based Dose Response HTS to Identify Inhibitors of 5'UTR Stem-Loop Driven Prion Protein mRNA Translation in H4 Neuroglioblastoma Cells. [Related pubchem assays: 1827 (Project Summary), 1813 (Primary HTS)]; format: functional
[2] = Luminescence Cell-Based Dose Confirmation HTS to Identify Inhibitors of Platelet Dense Granule Release. [Related pubchem assays: 1663 (Primary HTS), 1678 (Summary of Project)]; format: functional
[3] = biological target: Luciferin 4-monooxygenase (Photinus pyralis, UniProt P08659); assay: inhibition of purified Photinus pyralis luciferase – biochemical, luminescence, dose response (AID 1891)
[4] = luciferase reporter signal suppression in cells – H4 neuroglioma cells, luminescence, dose response (AID 1990); format: functional, cell-based
[5] = alpha-synuclein stem-loop luciferase translation blockers – H4 neuroglioma cells, luminescence, confirmation (AID 1988); format: functional, cell-based
[6] = DRD fibroblast viability loss – cell-based, non-viral oncogenic, luminescence, dose response (AID 1934); format: functional; settings: Homo sapiens
BJ [7] = assay: cells; format: functional, cell-based; settings: Homo sapiens
BJ [8] = assay: BJ-TERT-LT-ST fibroblast viability loss – cell-based, RAS-independent, luminescence, dose response (AID 1935); format: functional; settings: Homo sapiens;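 further: BJ fibroblasts immortalized with TERT plus LT and ST oncogenes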
BJ [9] = assay: BJ-TERT fibroblast viability loss – cell-based, RAS-independent, luminescence, dose response (AID 1933); format: functional; settings: Homo sapiens
[10] = biological target: T1, Polyadenylate-binding protein 1 (Homo sapiens, UniProt P11940); assay: MLLE domain peptide-binding blockers, IC50 – biochemical, fluorescence polarization, FITC-PAM2 peptide, dose response (AID 602259); format: functional; settings: read-out: IC50_Mean
[11] = biological target: T1, Polyadenylate-binding protein 1; assay: MLLE binding blockers, Cy5 peptide tracer – biochemical, fluorescence polarization, Cy5-PAM2 peptide, secondary, miRNA deadenylation inhibitor project, dose response (AID 602260); format: functional; settings: read-out: IC50_Mean
[12] = Luminescence Cell-Based Dose Retest to Confirm Inhibitors of Cancer Stem Cells. [Related pubchem assays (depositor defined):AID2717, AID2721]; format: functional; settings: Homo sapiens
[13] = biological target: T2, Corticotropin-releasing factor receptor 2/Corticotropin-releasing factor-binding protein (Homo sapiens, UniProt P24387+Q13324); assay: activators of CRF receptor 2 with binding protein – uHTS hits, confirmation (AID 602473); format: functional; settings: read-out: EC50_Mean
T2 sequence (Q13324 whole entry): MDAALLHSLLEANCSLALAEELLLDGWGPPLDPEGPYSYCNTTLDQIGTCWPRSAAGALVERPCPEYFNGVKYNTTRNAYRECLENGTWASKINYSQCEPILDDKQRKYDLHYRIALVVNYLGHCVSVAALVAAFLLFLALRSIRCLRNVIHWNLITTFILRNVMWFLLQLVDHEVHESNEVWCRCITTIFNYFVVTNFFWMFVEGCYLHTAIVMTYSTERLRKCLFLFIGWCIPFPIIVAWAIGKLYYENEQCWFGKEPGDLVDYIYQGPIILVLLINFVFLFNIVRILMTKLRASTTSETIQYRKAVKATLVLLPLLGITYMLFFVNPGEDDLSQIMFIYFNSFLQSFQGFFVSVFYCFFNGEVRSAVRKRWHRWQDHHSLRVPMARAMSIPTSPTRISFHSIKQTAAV
T2 sequence (P24387 whole entry): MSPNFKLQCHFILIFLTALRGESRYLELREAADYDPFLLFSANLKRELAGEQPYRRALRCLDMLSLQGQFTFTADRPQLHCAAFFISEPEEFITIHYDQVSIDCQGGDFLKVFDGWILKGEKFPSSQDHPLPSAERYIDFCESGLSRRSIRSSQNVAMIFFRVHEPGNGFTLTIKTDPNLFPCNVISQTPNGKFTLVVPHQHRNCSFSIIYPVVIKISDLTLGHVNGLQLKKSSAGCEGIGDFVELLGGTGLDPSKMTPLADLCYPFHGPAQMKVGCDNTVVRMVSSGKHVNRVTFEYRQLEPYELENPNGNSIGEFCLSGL

[14] = Luminescence Cell-Based Dose Confirmation HTS to Identify Activators of 5'UTR Stem-Loop Driven Alpha-Synuclein mRNA Translation in H4 Neuroglioblastoma Cells. [Related pubchem assays: 1829 (Project Summary), 1814 (Primary HTS)]; format: functional
H4 = assay: Luminescence Cell-Based Dose Response HTS to Identify Activators of 5'UTR Stem-Loop Driven Prion Protein mRNA Translation in H4 Neuroglioblastoma Cells. [Related pubchem assays: 1829 (Project Summary), 1814 (Primary HTS)]; format: functional; settings: Homo sapiens
[15] = Luminescence Cell-Based Dose Response HTS to Identify Activators of Luciferase Translation or Activity in H4 […] Cells. [Related pubchem assays: 1829 (Project Summary), 1814 (Primary HTS)]; format: functional
[16] = NIH3T3 cell viability loss – ATP luminescence, mouse fibroblasts, counter-screen, dose response (AID 2010); format: functional, cell-based;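 further: cells exposed to compound for about 90 hours before reading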
[17] = Trypanosoma cruzi growth suppression in host cells – NIH3T3 host cells, beta-gal luminescence, confirmation (AID 2044); format: functional, cell-based;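 further: intracellular parasites grown in NIH/3T3 mouse fibroblasts as host cells; luminescent beta-galactosidase reporter signal from transgenic T. cruzi replicating inside host cells; inhibitors lower the luminescence signal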
H9c2 = assay: cells; format: functional, cell-based; settings: Rattus norvegicus, H9c2, Myocardium;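 further: confirmatory concentration-response retest of ultra-high-throughput screening hits for modulation of myocardial damage; cell death induced by hydrogen peroxide oxidative stress; compound pretreatment for 60 min then peroxide exposure for 2 h; potency is for protecting the cells against peroxide damage rather than for killing them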
Streptococcus = assay: GAS UMAA2166 growth inhibition – luminescence, BacTiterGlo, counter-screen for streptokinase expression inhibitor project, dose response (AID 1915); format: functional, organism-based; settings: Streptococcus;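 further: potency for reduction of bacterial viability or growth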
[18] = tested on: Streptococcus sp. 'group A'; assay: Streptococcus pyogenes SK(-)GAS viability under kanamycin – luminescence, BacTiterGlo, confirmation, counter-screen for streptokinase expression inhibitor project, dose response (AID 1900); format: functional, organism-based; settings: Streptococcus sp. 'group A'
Streptokinase A = biological target: T3, Streptokinase A (Streptococcus pyogenes serotype M1, UniProt P10520); assay: viability-normalized secreted streptokinase activity reduction – plasminogen activation absorbance, OD405, dose response (AID 1914); format: functional, Streptococcus pyogenes M1 GAS;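 further: secreted streptokinase activity via plasminogen activation per viability signal from cell pellet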
T3 sequence (P10520 whole entry): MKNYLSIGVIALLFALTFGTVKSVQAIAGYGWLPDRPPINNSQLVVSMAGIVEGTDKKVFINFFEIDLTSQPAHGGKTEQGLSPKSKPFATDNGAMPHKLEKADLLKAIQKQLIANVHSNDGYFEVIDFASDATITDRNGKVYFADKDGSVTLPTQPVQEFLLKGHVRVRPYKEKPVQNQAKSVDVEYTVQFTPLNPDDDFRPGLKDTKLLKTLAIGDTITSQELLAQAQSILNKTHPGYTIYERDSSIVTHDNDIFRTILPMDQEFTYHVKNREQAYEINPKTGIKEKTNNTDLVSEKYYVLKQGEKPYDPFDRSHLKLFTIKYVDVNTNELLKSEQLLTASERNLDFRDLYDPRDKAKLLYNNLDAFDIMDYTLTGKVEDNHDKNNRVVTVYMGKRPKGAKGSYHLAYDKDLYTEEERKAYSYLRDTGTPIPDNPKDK
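Wherever AC50 is given: cells exposed to compound for roughly 70 hours or longer before luminescence read.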

T1 sequence (P11940 whole entry, the tested form may be a part): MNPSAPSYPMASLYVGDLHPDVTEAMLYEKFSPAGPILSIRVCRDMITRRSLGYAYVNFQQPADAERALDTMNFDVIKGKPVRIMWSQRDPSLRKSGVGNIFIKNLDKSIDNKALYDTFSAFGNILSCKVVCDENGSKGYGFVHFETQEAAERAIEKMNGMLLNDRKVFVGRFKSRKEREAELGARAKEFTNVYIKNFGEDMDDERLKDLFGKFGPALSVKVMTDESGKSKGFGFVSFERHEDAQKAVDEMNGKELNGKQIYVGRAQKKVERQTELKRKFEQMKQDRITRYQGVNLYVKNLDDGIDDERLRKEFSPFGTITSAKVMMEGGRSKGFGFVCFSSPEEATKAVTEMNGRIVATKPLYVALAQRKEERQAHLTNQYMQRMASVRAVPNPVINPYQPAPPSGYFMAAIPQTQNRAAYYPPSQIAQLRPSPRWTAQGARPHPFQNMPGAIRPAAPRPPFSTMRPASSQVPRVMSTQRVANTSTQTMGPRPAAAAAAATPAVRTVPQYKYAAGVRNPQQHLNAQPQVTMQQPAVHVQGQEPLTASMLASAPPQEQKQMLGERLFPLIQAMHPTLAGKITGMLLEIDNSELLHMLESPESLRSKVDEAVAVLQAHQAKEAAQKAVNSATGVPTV
Chain of Luciferin 4-monooxygenase (P08659 whole entry): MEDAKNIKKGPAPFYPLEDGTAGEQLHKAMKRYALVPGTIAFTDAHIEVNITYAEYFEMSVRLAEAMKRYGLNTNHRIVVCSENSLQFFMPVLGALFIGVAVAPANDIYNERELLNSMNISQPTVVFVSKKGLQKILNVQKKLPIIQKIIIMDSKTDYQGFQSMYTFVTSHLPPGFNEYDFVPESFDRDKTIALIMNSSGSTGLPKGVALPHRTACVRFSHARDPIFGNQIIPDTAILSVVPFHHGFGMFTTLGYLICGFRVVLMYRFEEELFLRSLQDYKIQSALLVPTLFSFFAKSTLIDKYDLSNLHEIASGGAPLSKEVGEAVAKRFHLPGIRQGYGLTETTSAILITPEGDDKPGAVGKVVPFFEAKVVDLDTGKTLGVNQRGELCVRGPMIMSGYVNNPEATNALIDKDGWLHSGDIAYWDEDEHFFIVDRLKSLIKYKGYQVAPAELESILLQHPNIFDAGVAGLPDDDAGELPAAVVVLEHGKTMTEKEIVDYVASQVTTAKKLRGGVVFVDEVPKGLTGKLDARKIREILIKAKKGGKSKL

CC(NC(=O)CCc1nnc(-c2ccc(-c3ccccc3)cc2)o1)c1nccs1 (stereo not drawn)
EC50 [1]: 10 µM (active)

COC(=O)c1sc(NC(=O)c2c(C)noc2C)nc1C
EC50 [2]: > 112 µM (not active) | EC50 [3]: 30.6 µM (active)

CC(C)n1c(SCC(=O)N2c3ccccc3Sc3ccccc32)nc2c1c(=O)n(C)c(=O)n2C
EC50 [4]: 13.3 µM (active) | EC50 [1]: 13.6 µM (active) | EC50 [5]: 22.2 µM (active)

CCOc1ccc(C(=O)c2cc([N+](=O)[O-])ccc2Cl)cc1
EC50 [6]: > 150 µM (not active) | EC50 (BJ [7]): > 150 µM (not active) | EC50 (BJ [8]): > 150 µM (not active) | EC50 (BJ [9]): > 150 µM (not active)

NNC(=O)c1nn(-c2ccccc2)cc1O
EC50 [4]: > 120 µM (not active) | EC50 [1]: > 120 µM (not active) | EC50 [5]: > 120 µM (not active)

CC(=O)c1cccc(NC(=O)COC(=O)[C@@H](NC(=O)OCc2ccccc2)C(C)C)c1
EC50 [2]: > 112 µM (not active) | EC50 [3]: > 112 µM (not active)

Cc1cc2ncc(S(C)(=O)=O)c(N)n2n1
EC50 [4]: > 120 µM (not active) | EC50 [1]: > 120 µM (not active) | EC50 [5]: > 120 µM (not active)

COc1ccccc1CNC(=O)COc1cc2c(c3oc(=O)cc(C)c13)CCC(C)(C)O2
EC50 [4]: 16 µM (active) | EC50 [1]: > 120 µM (not active) | EC50 [5]: > 120 µM (not active)

COc1ccc(OC)c(S(=O)(=O)N2CCN(C(=O)c3cc(C4CC4)nn3-c3ccccc3)CC2)c1
IC50 [10]: > 66 µM (inactive) | IC50 [11]: > 66 µM (inactive)

COC(=O)C1=C(Nc2ccc(C)cc2)C=C(C)C(C(=O)OC)C1c1ccc(OC)cc1 (stereo not drawn)
EC50 [4]: > 120 µM (not active) | EC50 [1]: 15.5 µM (active) | EC50 [5]: 11 µM (active)

Cc1ccc(NC(S)=Nc2cccc3cnccc23)cc1C
AC50 [12]: 62.1 µM (active)

CCOc1cc(C2C3=C(O)CCCC3=NC3=C2C(=O)CCC3)ccc1OCCO (stereo not drawn)
IC50 [10]: > 66 µM (inactive) | IC50 [11]: > 66 µM (inactive)

CCOc1ccccc1-c1nc(C(N)=O)c2nc(O)n(-c3cccc(C)c3)c2n1
EC50 [2]: > 112 µM (not active) | EC50 [3]: > 112 µM (not active)

O=Nc1c(O)n(Cc2c(Cl)cccc2Cl)c2ccccc12
EC50 [2]: > 112 µM (not active) | EC50 [13]: 4.67 µM (active) | EC50 [3]: > 112 µM (not active)

O=C(CSc1ncn(-c2ccccc2)n1)c1cccs1
IC50 [10]: > 66 µM (inactive) | EC50 [14]: 255 nM (active) | IC50 [11]: > 66 µM (inactive) | EC50 (H4): > 120 µM (not active) | EC50 [15]: 25.5 µM (active)

CCc1ccc(CNC(=O)C2CCN(c3nnc(C)c4c(C)n(-c5ccc(C)cc5)nc34)CC2)cc1
AC50 [12]: 3.85 µM (active)

CCNS(=O)(=O)c1ccc(NC(=O)Nc2cccc(C(F)(F)F)c2)cc1
AC50 [12]: 7.58 µM (active) | EC50 [16]: > 60 µM (not active) | EC50 [17]: 3.63 µM (active)

Cn1cccc1/C=C1\SC(=S)N(Nc2ccccc2)C1=O
AC50 [12]: 0.978 µM (active) | EC50 [16]: 3.85 µM (active) | EC50 [17]: 2.67 µM (active)

COc1ccc(CC(=O)NCc2ccc(-n3cccc3)cc2)cc1OC
EC50 [4]: > 120 µM (not active) | EC50 [1]: 9.97 µM (active) | EC50 [5]: 6.37 µM (active)

CNC(S)=NCCc1ccc(OC)c(OC)c1
EC50 [2]: > 112 µM (not active) | EC50 [3]: > 112 µM (not active)

CCc1nc(NC(C)C)c2oc3ccccc3c2n1
EC50 [2]: > 112 µM (not active) | EC50 [3]: > 112 µM (not active)

CCOc1cc(S(=O)(=O)n2cc(-c3ccc(F)cc3)c(N)n2)cc(OCC)c1OCC
EC50 [4]: 15.8 µM (active) | EC50 [1]: > 120 µM (not active) | EC50 [5]: > 120 µM (not active)

Fc1ccc(-[n+]2nc(Nc3ccccc3)sc2-c2cccc(Cl)c2Cl)cc1
IC50 [10]: > 66 µM (inactive) | IC50 [11]: > 66 µM (inactive)

Cc1ccc(O)c(NC(=S)NC(=O)/C=C/c2ccccc2)c1
IC50 [10]: > 66 µM (inactive) | IC50 [11]: > 66 µM (inactive)

N#CC1=C(N)N=C(SCc2cccc3ccccc23)C(C(N)=O)C12CCCCC2 (stereo not drawn)
IC50 [10]: > 66 µM (inactive) | IC50 [11]: > 66 µM (inactive)

NC(=NOC(=O)c1ccccc1Cl)c1nonc1N
EC50 [2]: 4.54 µM (active) | EC50 [3]: 1.11 µM (active)

CC1CCC2C(=O)N(c3ccc(NC4CCCCC4)c([N+](=O)[O-])c3)C(=O)C2C1 (stereo not drawn)
AC50 [12]: < 0.16 µM (active)

COc1ccc(/C=C/C(=O)NC(=S)Nc2ccc(S(=O)(=O)Nc3nccnc3OC)cc2)cc1
IC50 [10]: > 66 µM (inactive) | IC50 [11]: > 66 µM (inactive)

O=C(CSC1=NCCS1)Nc1ccccc1F
IC50 [10]: > 66 µM (inactive) | IC50 [11]: > 66 µM (inactive)

CC(=O)Oc1ccc(-c2csc(Nc3ccc(Cl)cn3)n2)cc1
AC50 [12]: 5.14 µM (active)

Cc1[nH]c2ccccc2c1C(Nc1nccs1)c1ccncc1 (stereo not drawn)
EC50 [2]: 14.6 µM (active) | EC50 [3]: > 112 µM (not active)

O=C(CC1Oc2ccccc2NC1=O)NC1CC1 (stereo not drawn)
EC50 [2]: > 112 µM (not active) | EC50 [3]: > 112 µM (not active)

CC(C)C(NC(=O)c1ccccc1)C(=O)NC1=NCCS1 (stereo not drawn)
IC50 [10]: > 66 µM (inactive) | IC50 [11]: > 66 µM (inactive)

Cc1cc(C(=O)N/N=C/c2cc(Br)ccc2OC(=O)c2ccccc2Cl)[nH]n1
IC50 (H9c2): > 79 µM (inactive) | EC50 [4]: 13.4 µM (active) | EC50 [1]: 18.8 µM (active) | EC50 [5]: > 120 µM (not active)

CNC(=S)N/N=C/c1cn(Cc2ccc(C)cc2)c2ccccc12
AC50 [12]: 3.07 µM (active) | EC50 (Streptococcus): 28 µM (active) | EC50 [18]: 5.29 µM (active) | EC50 (Streptokinase A): 74.1 µM (active)

N#C/C(=C\c1cccnc1)c1nc2ccccc2[nH]1
EC50 [6]: 38 µM (active) | EC50 (BJ [7]): > 150 µM (not active) | EC50 (BJ [8]): > 75 µM (not active) | EC50 (BJ [9]): 23.5 µM (active)
